In patent US20240099298A1, “BIOINSECTICIDAL COMPOSITIONS CONTAINING MONOTERPENES AND METHODS OF USE THEREOF” (priority 2017, published 2024):
≈ marks a conversion by molar mass, not a printed value.

What was measured:
[1] = molecular target: T1, recombinant gamma-aminobutyric acid receptor-associated protein (rGABARAP) (Frankliniella occidentalis, UniProt A0A6J1T1Q2); experiment: Microscale thermophoresis (MST) binding to rGABARAP; details: rGABARAP; read-out: Kd value, MST
Description: (§1) Preparation of recombinant GABARAP (rGABARAP) protein. RNA was extracted from F. occidentalis and cDNA was then synthesized. GABARAP (GenBank accession No. LOC113211372) was obtained after PCR amplification (Stafford-Banks, et al. (2014) Plos One 9:e94447).
Interaction between ME and rGABARAP. A Nano Temper Monolith NT.115 MST system (Nano Temper, Munich, Germany) was used to assess the binding affinities between the target compounds and rGABARAP according to the published procedures (Zan, et al. (2020) Journal of Agricultural and Food Chemistry 68:6280-6285). Spinosyn A was used as a chemical positive control. Spinosyn A (≥1 nM) can trigger a change of the Cl^− current of insect neuron GABAAR, which is considered to be an insecticidal action mechanism of spinosyn A (Watson (2001) Pesticide Biochemistry and Physiology 71:20-28). Ovalbumin (OVA) (Sangon Biotech, Shanghai, China) is a control protein consisting of 385 amino acid residues. The interaction between OVA and ME was used as a protein control experiment (Huntington, et al. (1995) Protein Science 4:613-621).

[2] = test system: T. castaneum (red flour beetle); experiment: Median lethal time (LT50) test, red flour beetle; assay type: in vivo, Tribolium castaneum
Description: (§2) All treatments and controls were in triplicate.
(§3) Toxicity of Monoterpenes as Fumigants. […] Therefore, to determine how fast the monoterpenes act as fumigants, it was necessary to determine their LT50 values for the target organisms.

[3] = test system: B. cucuribitae (melon fly); experiment: Median lethal time (LT50) test, melon fly; assay type: in vivo, Bactrocera cucuribitae
Description: as §2, §3

[4] = test system: Frankliniella occidentalis second-instar nymphs; experiment: whole plant or invertebrate; details: 24 h, second-instar nymphs of F. occidentalis, 24 h after treatment
Protocol: Chemicals. […] These monoterpenes and the positive control spinosyn A (Bosite Technology, Chongqing, China) were dissolved in acetone (10 g/L).
Insects. F. occidentalis Thrips were provided by the Institute of Vegetables and Flowers, Chinese Academy of Agricultural Sciences (Beijing, China), and kept in a box (19 cm×14 cm×20 cm) at 27±1° C., humidity of 50%-60% and a photoperiod of 16:8 h (light:dark). The population was established with sword beans (Canavalia gladiata). Second-instar nymphs with the same growth were tested.
Insect Assays. […] The leaf blade (2 cm×3 cm) was immersed in the solution for 10 s in the test solution, and then air-dried until there were no water drops on the surface. The concentrations were the same as those used in the insecticide-impregnated membrane method. After the chemical film had been formed for 2 h, the infusion leaves were placed in the bottles. The second-instar nymphs were picked with a soft writing brush to make up ten insects per bottle. The bottles were sealed with plastic wrap. 1% Triton X-100 (m/V) aqueous solution as a blank control. Each treatment was repeated four times. The bottles were placed under temperature of 27±1° C., humidity of 50%-60% and photoperiod of 16:8 h (light:dark). […] The insects were touched with a soft brush and numbers of dead and living Thrips were recorded, followed by calculation of the mortality rates.

[5] = test system: T. chilonis (parasitic wasp); details: non-target parasitic wasp, mortality after 15 minutes of exposure
Aedes aegypti (mosquito) = experiment: Median knockdown concentration (KC50) test, mosquito; assay type: in vivo
Description: as §2
(§4) Knockdown Activity of Monoterpenes.

M. domestica (housefly) = experiment: Median lethal time (LT50) test, housefly; assay type: in vivo, Musca domestica
Description: as §2, §3

[6] = test system: H. picinus (Nitidulid beetle); experiment: Median lethal time (LT50) test, Nitidulid beetle; assay type: in vivo, Haptoncus picinus
Description: as §2, §3

[7] = molecular target: T1, recombinant gamma-aminobutyric acid receptor-associated protein (rGABARAP); experiment: Isothermal titration calorimetry (ITC) binding to rGABARAP; details: 25° C., pH 7.4
Protocol: as §1
The isothermal titration thermal binding measurements were performed with an ITC-200 calorimeter (GE Healthcare, Boston, MA) at 25° C. in a buffer containing 50 mM Tris-HCl and 100 mM NaCl (pH 7.4). […] The MicroCal Origin 7.0 software system was used for data processing. The first run was a pre-run and was excluded from the final data. The amount of protein in the sample pool was constant. […] The experimental bimolecular interaction data from the 18 drops were used to calculate the dissociation constant. The dissociation constant […] was calculated as 1/K (Li, et al. (2018) RSC Advances 8:18952-18958).

[8] = test system: Musca domestica (housefly); experiment: Median knockdown concentration (KC50) test, housefly; assay type: in vivo; details: Musca domestica
Description: as §2, §4

[9] = test system: A. japonicus (parasitic wasp); experiment: Median lethal time (LT50) test, parasitic wasp (natural enemy); details: non-target parasitic wasp

T1 sequence (A0A6J1T1Q2 1-118): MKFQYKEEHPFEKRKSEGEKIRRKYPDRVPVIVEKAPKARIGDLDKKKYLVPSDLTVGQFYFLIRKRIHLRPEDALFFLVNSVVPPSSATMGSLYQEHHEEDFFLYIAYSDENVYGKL

Which Kd [1] does the source give for `C=CC(C)(O)CCC=C(C)C` (stereo not drawn) [Linalool, 3,7-dimethylocta-1,6-dien-3-o1] here?
Its Kd is 12.3 µM.

What about the “LT50 (fiducial limits)” value [2] of the same compound?
Its value is 35.1 h.

And the “LT50 (fiducial limits)” value [3]?
Its value is 2.05 h.

And the LC50 [4]?
Its LC50 is 7 mg/L (≈ 45.4 µM).

And the “LC50 (fiducial limits) against T. chilonis” value [5]?
The value was 2.88 mg/L (≈ 18.7 µM).

And the “LC90 (fiducial limits) against T. chilonis” value [5]?
The value was 6.24 mg/L (≈ 40.5 µM).

And the “time within which the insects responded” value (Aedes aegypti (mosquito))?
Its value is no more than 20 min.

What about the “KC50 (fiducial limits)” value (Aedes aegypti (mosquito); 20 Minutes) of the same compound?
Its value is greater than 243 µg/mL.

What about the “KC50 (fiducial limits)” value (Aedes aegypti (mosquito); 30 Minutes) of the same compound?
The value was 69.0 µg/mL.

And the “LT50 (fiducial limits)” value (M. domestica (housefly))?
Its value is 1.28 h.

And the “LT50 (fiducial limits)” value [6]?
Its value is 1.58 h.

What about the Kd [7] of the same compound?
Its Kd is 6.89 µM.

What about the “KC50 (fiducial limits)” value ([8]; 20 Minutes) of the same compound?
Its value is greater than 243 µg/mL.

What about the “KC50 (fiducial limits)” value ([8]; 30 Minutes) of the same compound?
The value was 192 µg/mL.

What about the “LT50 (fiducial limits) against A. japonicus” value [9] of the same compound?
The value was 0.788 (0.71-0.86) hour.
